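Exposure lasted 48 hours, with cells grown in 96-well plates and compounds tested at five concentrations. TGI: concentration producing complete growth inhibition.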
How the values were obtained:
Experiment in all cases: NCI anticancer screen, dose series, 48 h
[1] = tested on: A549 NSCLC
[2] = tested on: EKVX NSCLC
[3] = tested on: ACHN renal
[4] = tested on: KM12 colon
[5] = tested on: SF-268 CNS
[6] = tested on: OVCAR-4 ovarian
[7] = tested on: K-562 leukemia
[8] = tested on: SK-MEL-5 melanoma
[9] = tested on: SNB-19 CNS
[10] = tested on: MDA-MB-231 breast
[11] = tested on: HL-60(TB) leukemia
[12] = tested on: NCI/ADR-RES ovarian
[13] = tested on: HOP-92 NSCLC
[14] = tested on: SN12C renal
[15] = tested on: HT29 colon
[16] = tested on: RPMI-8226 leukemia
[17] = tested on: HOP-62 NSCLC
[18] = tested on: SK-MEL-2 melanoma
[19] = tested on: PC-3 prostate
[20] = tested on: BT-549 breast

| Compound | TGI [1] [µM] | TGI [2] [µM] | TGI [3] [µM] | TGI [4] [µM] | TGI [5] [µM] | TGI [6] [µM] | TGI [7] [µM] | TGI [8] [µM] | TGI [9] [µM] | TGI [10] [µM] | TGI [11] [µM] | TGI [12] [µM] | TGI [13] [µM] | TGI [14] [µM] | TGI [15] [µM] | TGI [16] [µM] | TGI [17] [µM] | TGI [18] [µM] | TGI [19] [µM] | TGI [20] [µM] |
| --- | --- | --- | --- | --- | --- | --- | --- | --- | --- | --- | --- | --- | --- | --- | --- | --- | --- | --- | --- | --- |
| CCO/C=N\C1=C(C#N)SC2=N/C(=C\c3ccc(OC)cc3)C(=O)N21 | > 100 | > 100 | > 100 | > 100 | > 100 | 65.6 | > 100 | > 100 | > 100 | > 100 | > 100 | > 100 | > 100 | > 100 | > 100 | > 100 |  |  |  |  |
| CC1(C)/C(=C/N=O)N(O)C(C)(C)N1O | > 100 | > 100 | > 100 | > 100 | > 100 | > 100 | > 100 | > 100 | > 100 | > 100 | > 100 | > 100 | > 100 | > 100 | > 100 | > 100 | > 100 | > 100 | > 100 |  |
| CC1(C)C[C@@H]2C1CCC1(C)CC2(O)CC[C@H]1O (some centres undefined) | > 100 | > 100 | > 100 | > 100 | > 100 | > 100 | > 100 | > 100 | > 100 |  | > 100 | > 100 | > 100 | > 100 | > 100 | > 100 | > 100 | > 100 | > 100 | > 100 |
| CC(=O)O[C@H]1C(=O)[C@@]2(C)[C@H]([C@H](OC(=O)c3ccoc3)[C@]3(O)C[C@H](OC(=O)[C@H](O)[C@@H](NC(=O)c4ccccc4)c4ccccc4)C(C)=C1C3(C)C)[C@]1(OC(C)=O)CO[C@@H]1C[C@@H]2O | > 12.5 | > 12.5 | > 12.5 | > 12.5 | > 12.5 | > 12.5 | 0.156 |  | > 12.5 | > 12.5 |  | > 12.5 | > 12.5 | > 12.5 | > 12.5 |  | > 12.5 | 0.696 | > 12.5 | > 12.5 |
| CCOC(=O)c1cn2c(n1)sc1cc(Cl)ccc12 | > 100 | > 100 | > 100 | > 100 | > 100 | > 100 | > 100 | > 100 | 83.2 | > 100 |  | > 100 | > 100 | > 100 | > 100 | > 100 | 61.6 | > 100 | > 100 | > 100 |
| O=C(c1cccs1)N1CCc2ccccc2C1 | > 100 | > 100 | > 100 | > 100 | > 100 |  | > 100 | > 100 | > 100 | > 100 | 76 | > 100 | > 100 | > 100 | > 100 | > 100 | > 100 | > 100 | > 100 |  |
| CC1S/C(=N\N=C2/C(=O)Nc3ccc(Br)cc32)N(C2CCCCC2)C1=O (centres undefined) | 12.6 | 22.2 | 3.24 | 20.8 | 22.3 | 4.89 | > 100 | > 100 | 14.8 | 6.76 | > 100 | 15.6 | 25.4 | 12.3 | 53.2 | > 100 | 4.25 | 3.65 | 19.9 |  |
| COc1cc(OC)c2c(C)cc(=O)oc2c1 | > 100 | > 100 | > 100 | > 100 | > 100 | > 100 | > 100 | > 100 | > 100 | > 100 |  | > 100 |  | > 100 | > 100 | > 100 | > 100 | > 100 | > 100 |  |
| CCOC(C)O[C@H]1C(=O)OCC1(C)C (some centres undefined) | > 100 | > 100 | > 100 | > 100 | > 100 | > 100 | > 100 | > 100 | > 100 | > 100 | > 100 | > 100 | > 100 |  | > 100 | > 100 | > 100 | > 100 | > 100 |  |
| CC(C)OC(=O)/C=C/C(=O)O/C=C/[N+](=O)[O-] | > 100 | > 100 | > 100 | 70.6 | 68.7 | > 100 | 66.8 | > 100 | > 100 | > 100 |  | > 100 |  |  | > 100 | 33.9 | > 100 | 46.4 | > 100 | 90.4 |
| N#C/C(=C/NC(N)=S)C(N)=O | > 100 | > 100 | > 100 | > 100 | > 100 | > 100 |  | > 100 | > 100 | > 100 | > 100 | > 100 | > 100 | > 100 | > 100 |  | > 100 | > 100 |  | > 100 |
| CCOc1ncn(-c2ccc(NC(=S)NC3OC(CO)C(O)C(O)C3O)cc2)n1 (centres undefined) | > 100 | > 100 |  | > 100 | > 100 | > 100 | > 100 | > 100 | > 100 | > 100 | > 100 |  | > 100 | > 100 | > 100 | > 100 | > 100 |  | > 100 | > 100 |
| CSc1cc(Cl)c(C)cc1S(=O)(=O)NC(=O)NNc1cccc(C(F)(F)F)n1 | > 100 | > 100 | > 100 | > 100 | > 100 | > 100 | > 100 | > 100 | > 100 | > 100 |  | > 100 |  | > 100 | > 100 |  | > 100 | > 100 | > 100 |  |

From PubChem BioAssay (NCI)
